We go through 1 compound from patent US7375105B2, “Pyridine substituted furan derivatives as Raf kinase inhibitors” (SmithKline Beecham p.l.c., priority 2001, dated 2008).

Each structure is given as a SMILES string. pIC50: −log10 of the molar value.

For one assay, the target named is B-Raf (Homo sapiens, UniProt P15056). Nature of the assay: Fluorescence anisotropy kinase binding assay (Assay 1). The text has this:
Fluorescence Anisoptrophy Kinase Binding Assay
The concentration of kinase enzyme should preferably be >1×Kf. The concentration of fluorescent ligand required will depend on the instrumentation used, and the fluorescent and physicochemical properties. The concentration used must be lower than the concentration of kinase enzyme, and preferably less than half the kinase enzyme concentration. A typical protocol is:
All compounds are serially diluted in DMSO, then by a one step dilution into buffer of comparison, 50 mM HEPES, […] pH7.5, 1 mM CHAPS, 10 mM MgCL2, for the assay.
B-Raf Enzyme concentration: 1 nM
Fluorescent ligand concentration: 0.5 nM
Test compound concentration: 0.5 nM-100 uM
Components incubated in 10 ul final volume in LJL HE 384 type B black microtitre plate until equilibrium reached (Over 3 h, up to 30 h)
Fluorescence anisotropy read in an LJL Acquest fluorescence reader.
Definitions: Ki=dissociation constant for inhibitor binding
• Kf=dissociation constant for fluorescent ligand binding
The fluorescent ligand is the following compound:
which is derived from 5-[2-(4-aminomethylphenyl)-5-pyridin-4-yl-1H-imidazol-4-yl]-2-chlorophenol and rhodamine green.

For assay [1], the system named is Human diploid foreskin fibroblasts (HFF). The experiment in a line: XTT 72 hr growth inhibition (Assay 3), HFF. Type of assay: cell-based. The following applies: Fibroblast, normal, B-Raf wt, Ras wt. The procedure: (§1) XTT 72 Hr Growth Inhibition Protocol for Mammalian Cultured Cells (Assay 3)
(§2) Human diploid foreskin fibroblasts (HFF) or human colon carcinoma (Colo 201) cells were grown in Dulbecco's modified Eagle's medium (DMEM) (Invitrogen/Life Technologies) containing 10% fetal bovine serum (FBS) and the antibiotics penicillin (100 Units/ml) and streotomycin (100 micrograms/ml) (Invitrogen/Life Technologies). Growth was at 37° C. in humidified 5% CO2 incubators in 75 cm^2 plastic flasks. Cells were harvested using 0.25% trypsin/1 mM ethylenediaminetetraacetic acid (EDTA), resuspended in growth medium, and counted using a hemocytometer. Flat-bottomed 96-well plates were seeded with 2×10^3 cells/well in a volume of 200 ul from trypsinized exponentially growing cultures. To “blank” wells, growth medium was added with no additions. Cells were incubated overnight to permit attachment.
(§3) Next day, medium from wells that contained cells was replaced with 180 microliters of fresh medium. Appropriate dilutions of test compounds were added to the wells from stock solutions of compound dissolved in dimethyl sulfoxide (DMSO); final DMSO concentration in all wells was 0.2%. […] Absorbance at 450 nm was then determined using a 96-well UV plate reader (Molecular Devices). Under these conditions, absorbance of untreated control cells at 450 nm was at least 1.0 optical density unit/ml. […]

Assay [2] has as its system human colon carcinoma (Colo 201) cells. Nature of the assay: XTT 72 hr growth inhibition (Assay 3), Colo201. Type of assay: cell-based. As to conditions: colorectal cancer, B-Raf ND, Ras ND. The protocol:
as §1, §2, §3

The subject of assay [3] is colon carcinoma (Colo 205). The experiment in a line: Methylene blue growth inhibition assay (Assay 2), Colo205. Type of assay: cell-based. The following applies: Homo sapiens, colorectal cancer, B-Raf V599E, Ras wt. The protocol:
(§4) Methylene Blue Growth Inhibition Assay (Assay 2)
(§5) Normal human foreskin fibroblasts (HFF), human melanoma (A375P, SKMEL2, SKMEL3) colon carcinoma (Colo 205) were cultured in the following growth media: A375P, Colo 205, Roswell Park Memorial Institute (RPMI) 1640 (Life Technologies 22400-089) containing 10% fetal bovine serum (FBS); HFF, Dulbecco's modified Eagle Medium (DMEM) (Life Technologies 12320-032) containing 10% FBS; SKMEL2 and SKMEL3, Minimum Essential Medium (MEM, Life Technologies 11095-080) containing 1× non-essential amino acids (Life Technologies 11140-050) and 10% FBS. Cells were harvested using 0.25% trypsin/1 mM, EDTA, counted using a haemocytometer, and plated in 100 microliters of the appropriate media, at the following densities, in a 96-well tissue culture plate (Falcon 3075): HFF and A375P, 5,000 cells/well; all other cell lines, 10,000 cells/well. The next day, compounds were diluted in RPMI containing 100 micrograms/ml gentamicin, at twice the final required concentration, from 10 mM stock solutions in dimethyl sulphoxide (DMSO). One hundred microliters per well of these dilutions were added to the 100 microliters of media currently on the cell plates. RPMI containing 0.6% DMSO was added to control wells. […] Optical density at 620 nm was measured on a microplate reader. Percent inhibition of cell growth was calculated relative to vehicle treated control wells. […]

The next assay deals with human melanoma A375P. Nature of the assay: Methylene blue growth inhibition assay (Assay 2), A375P. Type of assay: cell-based. As to conditions: B-Raf V599E, Ras wt. The protocol: as §4, §5
Another assay deals with human melanoma SKMEL3. The experiment in a line: Methylene blue growth inhibition assay (Assay 2), SKMEL3. Type of assay: cell-based. The following applies: SK-MEL3, B-Raf V599E, Ras wt. The procedure:
as §4, §5

For the next assay, the system named is human melanoma SKMEL2. The experiment in a line: Methylene blue growth inhibition assay (Assay 2), SKMEL2. The following applies: SK-MEL-2, B-Raf wt, [Q61R]N-Ras. Type of assay: cell-based. The protocol: as §4, §5

B-Raf, sequence (P15056 whole entry): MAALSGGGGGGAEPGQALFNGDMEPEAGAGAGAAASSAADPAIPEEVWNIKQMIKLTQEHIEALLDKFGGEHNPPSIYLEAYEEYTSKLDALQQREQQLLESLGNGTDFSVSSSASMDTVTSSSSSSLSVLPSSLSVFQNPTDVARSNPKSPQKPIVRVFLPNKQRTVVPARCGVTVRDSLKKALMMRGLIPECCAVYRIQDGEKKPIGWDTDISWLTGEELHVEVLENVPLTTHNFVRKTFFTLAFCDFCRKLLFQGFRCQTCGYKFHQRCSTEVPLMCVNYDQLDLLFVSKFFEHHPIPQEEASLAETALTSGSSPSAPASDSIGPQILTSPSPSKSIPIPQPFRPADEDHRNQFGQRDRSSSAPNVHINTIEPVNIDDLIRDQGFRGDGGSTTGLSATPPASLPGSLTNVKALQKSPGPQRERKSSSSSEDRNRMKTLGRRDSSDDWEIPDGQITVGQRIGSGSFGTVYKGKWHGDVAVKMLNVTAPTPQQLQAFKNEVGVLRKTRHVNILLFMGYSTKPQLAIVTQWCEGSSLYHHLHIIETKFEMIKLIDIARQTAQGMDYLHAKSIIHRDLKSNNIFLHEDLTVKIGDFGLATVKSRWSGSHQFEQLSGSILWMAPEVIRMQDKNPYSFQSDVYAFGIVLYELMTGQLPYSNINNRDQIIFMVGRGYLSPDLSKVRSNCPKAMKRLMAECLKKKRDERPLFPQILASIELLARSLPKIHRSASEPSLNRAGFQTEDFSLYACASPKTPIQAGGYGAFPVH

The compound `CC(C)(CN)c1cc(-c2ccncc2)c(-c2ccc(Cl)c(O)c2)o1` [Example 3, 5-[5-(2-Amino-1,1-dimethyl-ethyl)-3-pyridin-4-yl-furan-2-yl]-2-chloro-phenol] showed a Kd on B-Raf of 5.5 nM. Also, the negative logarithm of the IC50 (pIC50) in assay [1] was 4.66; in assay [2] it was 5.07; in assay [3] it was 5.10; with human melanoma A375P, 5.74; in the assay on human melanoma SKMEL3, 5.85; in the assay with human melanoma SKMEL2 it was 5.31.
